# Where two headings read alike, the source gives them in different places.
# Tests used:
# [1] = test system: adjuvant-induced arthritis in rats; assay: Established adjuvant-induced arthritis in rats (decrease of paw volume); assay type: in vivo, Charles River Lewis male rats; settings: for ED50: Rattus norvegicus, read-out: Adjuvant Arthritis ED50
# [2] = test system: characteristic stretching or writhing syndrome which is indicative of pain induced by phenylquinone; assay: Phenylquinone writhing test (PQW), analgesic activity; assay type: in vivo, female white mice; settings: Mus musculus, read-out: PQW ED50
# Experimental: A test compound suspended in 1% methylcellulose was given orally to fasted (17-21 hours) female white mice, 5-20 animals per double blind test. Aqueous (0.01% phenyl-p-benzoquinone) phenylquinone, 0.20 ml per mouse, was injected intraperitoneally 6 minutes before observations were begun.
# [3] = oral gavage, 7 daily doses, ED50% decrease from control paw volume
# [4] = oral, fasted mice, effective analgesic dose for 50% of the mice
Structure (SMILES),ED50 ([1]; po) [mg/kg],ED50 ([2]; po) [mg/kg],"ED50 [1, 3] [mg/kg]","ED50 [2, 4] [mg/kg]","% Decrease from control paw volume at indicated daily dose ([1]; daily dose 81 (mg/kg), oral) [%]"
"COc1ccc2c(c1)c(CC(=O)O)c(C)n2C(=O)c1ccc(Cl)cc1 [Indomethacin, indomethacin, reference compound]",0.3,0.35,–,–,–
COc1ccc(-c2cc(Br)sc2-c2ccc(SC)cc2)cc1 [Example 8],–,–,2.9,< 15,–
"CCCCC1C(=O)N(c2ccccc2)N(c2ccccc2)C1=O [Phenylbutazone, phenylbutazone, reference compound]",–,–,10,80,–
"Fc1ccc(-c2cc(Br)sc2-c2ccc(F)cc2)cc1 [Example 1, 5-Bromo-2,3-bis(4-fluorophenyl)thiophene]",–,–,> 60,6.8,–
"CS(=O)(=O)c1ccc(-c2sc(Br)cc2-c2ccc(F)cc2)cc1 [Example 9, 5-bromo-3-(4-fluorophenyl)-2-(4-methylsulfonylphenyl)thiophene]",–,–,0.4,> 108,–
"CC(C)Cc1ccc(C(C)C(=O)O)cc1 (stereo not drawn) [Ibuprofen, ibuprofen, reference compound]",–,–,100,10,–
"CSc1ccc(-c2sc(Br)cc2-c2ccc(F)cc2)cc1 [Example 5, 5-bromo-3-(4-fluorophenyl)-2-(4-methylthiophenyl)thiophene]",–,–,1.4,> 108,–
"CSc1ccc(-c2cc(Br)sc2-c2ccc(F)cc2)cc1 [Example 6, 5-bromo-2-(4-fluorophenyl)-3-(4-methylthiophenyl)thiophene]",–,–,0.25,> 108,–
Cc1ccc(-c2cc(Br)sc2-c2ccc(C)cc2)cc1 [Example 7],–,–,> 81,2.9,–
"CC(=O)Oc1ccccc1C(=O)O [Aspirin, aspirin, reference compound]",305,135,–,–,–
"COc1ccc(-c2cc(Cl)sc2-c2ccc(OC)cc2)cc1 [Example 2, 5-Chloro-2,3-bis(4-methoxyphenyl)thiophene]",–,–,4.5,2.1,–
"COc1ccc(-c2cc(I)sc2-c2ccc(OC)cc2)cc1 [Example 3, 5-Iodo-2,3-bis(4-methoxyphenyl)thiophene]",–,–,–,< 15,46

# From patent US4590205A, “Antiinflammatory and/or analgesic 2,3-diaryl-5-halo thiophenes” (E. I. Du Pont de Nemours and Company, priority 1984, dated 1986)
